pKd: −log10 of the molar value.
Legend:
[1] = target: Galectin-1 (Homo sapiens, UniProt P09382); experiment: Fluorescence anisotropy assay, affinity for galectin-1; type: binding; conditions: compound as inhibitor of the interaction between galectin and a fluorescein tagged saccharide probe
Protocol: (§1) The affinity of Example 1-43 for galectins were determined by a fluorescence anisotropy assay where the compound was used as an inhibitor of the interaction between galectin and a fluorescein tagged saccharide probe as described Sörme, P., Kahl-Knutsson, B., Huflejt, M., Nilsson, U. J., and Leffler H. (2004) Fluorescence polarization as an analytical tool to evaluate galectin-ligand interactions. Anal. Biochem. 334: 36-47, (Sörme et al., 2004) and Monovalent interactions of Galectin-1 By Salomonsson, Emma; Larumbe, Amaia; Tejler, Johan; Tullberg, Erik; Rydberg, Hanna; Sundin, Anders; Khabut, Areej; Frejd, Torbjomn; Lobsanov, Yuri D.; Rini, James M.; et al, From Biochemistry (2010), 49(44), 9518-9532, (Salomonsson et al., 2010).

[2] = target: Galectin-3 (Homo sapiens, UniProt P17931); experiment: Fluorescence anisotropy assay, affinity for galectin-3; type: binding; conditions: compound as inhibitor of the interaction between galectin and a fluorescein tagged saccharide probe
Chain of Galectin-3 (P17931 whole entry): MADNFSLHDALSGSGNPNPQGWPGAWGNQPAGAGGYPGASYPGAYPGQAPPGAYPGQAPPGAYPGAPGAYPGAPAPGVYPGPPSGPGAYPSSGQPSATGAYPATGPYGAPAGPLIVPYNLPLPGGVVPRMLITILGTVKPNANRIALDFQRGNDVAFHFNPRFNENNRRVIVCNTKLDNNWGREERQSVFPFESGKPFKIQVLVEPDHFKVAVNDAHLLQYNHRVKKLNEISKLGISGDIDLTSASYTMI
Protocol: as §1

Chain of Galectin-1 (P09382 whole entry): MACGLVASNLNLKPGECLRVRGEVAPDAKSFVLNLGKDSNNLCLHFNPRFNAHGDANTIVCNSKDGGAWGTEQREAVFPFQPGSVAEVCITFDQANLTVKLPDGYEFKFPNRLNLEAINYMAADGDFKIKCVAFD

pKd [1] | pKd [2] | SMILES
7.20 | 6.85 | CNC(=O)c1ncc(Br)cc1S[C@H]1OC(CO)[C@H](O)C(n2cc(-n3ccc(Cl)n3)nn2)C1OC (stereo partly drawn) [Example 34, 5-Bromo-2-(N-methylcarbamoyl)pyridin-3-yl 3-[4-(3-chloro-1H-1,2-pyrazol-1-yl)-1H-1,2,3-triazol-1-yl]-3-deoxy-2-O-methyl-1-thio-α-D-galactopyranoside]
7.20 | 6.85 | CCNC(=O)c1ncc(Br)cc1S[C@H]1OC(CO)[C@H](O)[C@H](n2cc(-n3ccc(Cl)n3)nn2)C1OC (stereo partly drawn) [Example 35, 5-Bromo-2-(N-ethylcarbamoyl)pyridin-3-yl 3-[4-(3-chloro-1H-1,2-pyrazol-1-yl)-1H-1,2,3-triazol-1-yl]-3-deoxy-2-O-methyl-1-thio-α-D-galactopyranoside]
6.96 | 6.85 | CCCCNC(=O)c1ncc(Br)cc1S[C@H]1OC(CO)[C@H](O)[C@H](n2cc(-n3ccc(Cl)n3)nn2)C1OC (stereo partly drawn) [Example 36, 5-Bromo-2-(N-butylcarbamoyl)pyridin-3-yl 3-[4-(3-chloro-1H-1,2-pyrazol-1-yl)-1H-1,2,3-triazol-1-yl]-3-deoxy-2-O-methyl-1-thio-α-D-galactopyranoside]
7.04 | 6.96 | COC1[C@@H](Sc2cc(Br)cnc2C(=O)NCC(C)C)OC(CO)[C@H](O)[C@@H]1n1cc(-n2ccc(Cl)n2)nn1 (stereo partly drawn) [Example 37, 5-Bromo-2-(N-isobutylcarbamoyl)pyridin-3-yl 3-[4-(3-chloro-1H-1,2-pyrazol-1-yl)-1H-1,2,3-triazol-1-yl]-3-deoxy-2-O-methyl-1-thio-α-D-galactopyranoside]
7.10 | 6.74 | COC1[C@@H](Sc2cc(Br)cnc2C(=O)NCCF)OC(CO)[C@H](O)[C@@H]1n1cc(-n2ccc(Cl)n2)nn1 (stereo partly drawn) [Example 38, 5-Bromo-2-[N-(2-fluoroethyl)carbamoyl]pyridin-3-yl 3-[4-(3-chloro-1H-1,2-pyrazol-1-yl)-1H-1,2,3-triazol-1-yl]-3-deoxy-2-O-methyl-1-thio-α-D-galactopyranoside]
7.19 | 6.74 | COC1[C@@H](Sc2cc(Br)cnc2C(=O)NC23CC(C2)C3)OC(CO)[C@H](O)[C@@H]1n1cc(-n2ccc(Cl)n2)nn1 (stereo partly drawn) [Example 39, 5-Bromo-2-(N-bicyclo[1.1.1]pentan-1-ylcarbamoyl)pyridin-3-yl 3-[4-(3-chloro-1H-1,2-pyrazol-1-yl)-1H-1,2,3-triazol-1-yl]-3-deoxy-2-O-methyl-1-thio-α-D-galactopyranoside]
7.09 | 6.80 | COC1[C@@H](Sc2cc(Br)cnc2C(=O)NC2CCC2)OC(CO)[C@H](O)[C@@H]1n1cc(-n2ccc(Cl)n2)nn1 (stereo partly drawn) [Example 40, 5-Bromo-2-(N-cyclobutylcarbamoyl)pyridin-3-yl 3-[4-(3-chloro-1H-1,2-pyrazol-1-yl)-1H-1,2,3-triazol-1-yl]-3-deoxy-2-O-methyl-1-thio-α-D-galactopyranoside]
7.14 | 6.80 | COC1[C@@H](Sc2cc(Br)cnc2C(=O)NC2CC2)OC(CO)[C@H](O)[C@@H]1n1cc(-n2ccc(Cl)n2)nn1 (stereo partly drawn) [Example 41, 5-Bromo-2-(N-cyclopropylcarbamoyl)pyridin-3-yl 3-[4-(3-chloro-1H-1,2-pyrazol-1-yl)-1H-1,2,3-triazol-1-yl]-3-deoxy-2-O-methyl-1-thio-α-D-galactopyranoside]
6.54 | 7.52 | COC1C(n2cc(-n3cc(Cl)c(Cl)n3)nn2)[C@@H](O)C(CO)O[C@@H]1Sc1cc(Br)cnc1C#N (stereo partly drawn) [Example 42, 5-Bromo-2-cyanopyridin-3-yl 3-[4-(3,4-dichloro-1H-1,2-pyrazol-1-yl)-1H-1,2,3-triazol-1-yl]-3-deoxy-2-O-methyl-1-thio-α-D-galactopyranoside]
6.57 | 6.85 | COC1C(n2cc(-n3cc(F)c(Cl)n3)nn2)[C@@H](O)C(CO)O[C@@H]1Sc1cc(Br)cnc1C#N (stereo partly drawn) [Example 43, 5-Bromo-2-cyanopyridin-3-yl 3-[4-(3-chloro-4-fluoro-1H-1,2-pyrazol-1-yl)-1H-1,2,3-triazol-1-yl]-3-deoxy-2-O-methyl-1-thio-α-D-galactopyranoside]

Source: patent US20240287122A1, “NOVEL GALACTOSIDE INHIBITOR OF GALECTINS” (GALECTO BIOTECH AB, priority 2020, published 2024)
